Experimental data published in the supplement of paper PMC10307832.

Tests used:
Assay in all cases: relative viability (nuclei count vs DMSO), 5 days (fraction); higher = more cells survive
H3255 = system: H3255
Summary of the method: (§1)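 Lung cancer cell lines in 1536-well plates were dosed by pin tool the day after seeding, either with one drug alone or with a fixed anchor-drug dose plus five library-drug doses (not always all listed) in √10 steps. After 5 days, cells were fixed and their nuclei stained in one step (final 0.05% Triton X-100, 1% formaldehyde, 1 ug/ml Hoechst), then counted on 4× images. Relative viability is the nuclei count in treated wells divided by that in vehicle wells. Values are medians of duplicate plates.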

NCI-H2085 = system: NCI-H2085
Summary of the method: as §1

NCI-H2087 = system: NCI-H2087
Summary of the method: as §1

LXF-289 = system: LXF-289
Summary of the method: as §1

HCC-15 = system: HCC-15
Summary of the method: as §1

NCI-H1437 = system: NCI-H1437
Summary of the method: as §1

NCI-H23 = system: NCI-H23
Summary of the method: as §1

NCI-H661 = system: NCI-H661
Summary of the method: as §1

PC-14 = system: PC-14
Summary of the method: as §1

PC-3 [JPC-3] = system: PC-3 [JPC-3]
Summary of the method: as §1

NCI-H2228 = system: NCI-H2228
Summary of the method: as §1

NCI-H2009 = system: NCI-H2009
Summary of the method: as §1

HCC-366 = system: HCC-366
Summary of the method: as §1

NCI-H2342 = system: NCI-H2342
Summary of the method: as §1

LC-2-ad = system: LC-2-ad
Summary of the method: as §1

COR-L23 = system: COR-L23
Summary of the method: as §1

SK-MES-1 = system: SK-MES-1
Summary of the method: as §1

HCC-827 = system: HCC-827
Summary of the method: as §1

LCLC-103H = system: LCLC-103H
Summary of the method: as §1

NCI-H1975 = system: NCI-H1975
Summary of the method: as §1

NCI-H1666 = system: NCI-H1666
Summary of the method: as §1

UMC-11 = system: UMC-11
Summary of the method: as §1

`Cc1csc(=NC2CCCCC2)n1/N=C/c1ccc(O)c(O)c1O` [MIM1] + CC(=O)Nc1cccc(-n2c(=O)n(C3CC3)c(=O)c3c(Nc4ccc(I)cc4F)n(C)c(=O)c(C)c32)c1 [Trametinib] (partner 0.02 µM) was tested, and the relative viability (H3255; first compound 0.2 µM) was 0.578, the relative viability (H3255; first compound 0.6325 µM) was 0.618 and the relative viability (H3255; first compound 2 µM) was 0.56. The relative viability (H3255; first compound 6.325 µM) was 0.529, the relative viability (H3255; first compound 20 µM) was 0.293 and the relative viability (NCI-H2085; first compound 0.2 µM) was 0.619. The relative viability (NCI-H2085; first compound 0.6325 µM) was 0.512, the relative viability (NCI-H2085; first compound 2 µM) was 0.62 and the relative viability (NCI-H2085; first compound 6.325 µM) was 0.436. For the same molecule, the relative viability (NCI-H2085; first compound 20 µM) was 0.406, the relative viability (NCI-H2087; first compound 0.2 µM) was 0.293 and the relative viability (NCI-H2087; first compound 0.6325 µM) was 0.227. The relative viability (NCI-H2087; first compound 2 µM) was 0.197, the relative viability (NCI-H2087; first compound 6.325 µM) was 0.175 and the relative viability (NCI-H2087; first compound 20 µM) was 0.202. It also gave a relative viability (LXF-289; first compound 0.2 µM) of 0.625, a relative viability (LXF-289; first compound 0.6325 µM) of 0.664 and a relative viability (LXF-289; first compound 2 µM) of 0.705. The relative viability (LXF-289; first compound 6.325 µM) was 0.607, the relative viability (LXF-289; first compound 20 µM) was 0.221 and the relative viability (HCC-15; first compound 0.2 µM) was 0.363. It also gave a relative viability (HCC-15; first compound 2 µM) of 0.372, a relative viability (HCC-15; first compound 6.325 µM) of 0.377 and a relative viability (HCC-15; first compound 20 µM) of 0.133. For the same molecule, the relative viability (NCI-H1437; first compound 0.2 µM) was 0.454, the relative viability (NCI-H1437; first compound 0.6325 µM) was 0.475 and the relative viability (NCI-H1437; first compound 2 µM) was 0.456. It also gave a relative viability (NCI-H1437; first compound 6.325 µM) of 0.239, a relative viability (NCI-H1437; first compound 20 µM) of 0.237 and a relative viability (NCI-H23; first compound 0.2 µM) of 0.407. The relative viability (NCI-H23; first compound 0.6325 µM) was 0.342, the relative viability (NCI-H23; first compound 2 µM) was 0.326 and the relative viability (NCI-H23; first compound 6.325 µM) was 0.312. The relative viability (NCI-H23; first compound 20 µM) was 0.163, the relative viability (NCI-H661; first compound 0.2 µM) was 0.607 and the relative viability (NCI-H661; first compound 0.6325 µM) was 0.587. The relative viability (NCI-H661; first compound 2 µM) was 0.554, the relative viability (NCI-H661; first compound 6.325 µM) was 0.406 and the relative viability (NCI-H661; first compound 20 µM) was 0.348. The relative viability (PC-14; first compound 0.2 µM) was 0.663, the relative viability (PC-14; first compound 0.6325 µM) was 0.882 and the relative viability (PC-14; first compound 2 µM) was 0.479. It also gave a relative viability (PC-14; first compound 6.325 µM) of 0.621, a relative viability (PC-14; first compound 20 µM) of 0.17 and a relative viability (PC-3 [JPC-3]; first compound 0.2 µM) of 0.643. It also gave a relative viability (PC-3 [JPC-3]; first compound 0.6325 µM) of 0.687, a relative viability (PC-3 [JPC-3]; first compound 2 µM) of 0.655 and a relative viability (PC-3 [JPC-3]; first compound 6.325 µM) of 0.521. It also gave a relative viability (PC-3 [JPC-3]; first compound 20 µM) of 0.558, a relative viability (NCI-H2228; first compound 0.2 µM) of 0.54 and a relative viability (NCI-H2228; first compound 0.6325 µM) of 0.642. For the same molecule, the relative viability (NCI-H2228; first compound 2 µM) was 0.506, the relative viability (NCI-H2228; first compound 6.325 µM) was 0.307 and the relative viability (NCI-H2228; first compound 20 µM) was 0.13. It also gave a relative viability (NCI-H2009; first compound 0.2 µM) of 0.257, a relative viability (NCI-H2009; first compound 0.6325 µM) of 0.261 and a relative viability (NCI-H2009; first compound 2 µM) of 0.27. For the same molecule, the relative viability (NCI-H2009; first compound 6.325 µM) was 0.208, the relative viability (NCI-H2009; first compound 20 µM) was 0.329 and the relative viability (HCC-366; first compound 0.2 µM) was 0.321. It also gave a relative viability (HCC-366; first compound 2 µM) of 0.3, a relative viability (HCC-366; first compound 6.325 µM) of 0.0405 and a relative viability (HCC-366; first compound 20 µM) of 0.0273. For the same molecule, the relative viability (NCI-H2342; first compound 0.2 µM) was 0.842, the relative viability (NCI-H2342; first compound 0.6325 µM) was 0.903 and the relative viability (NCI-H2342; first compound 2 µM) was 0.787. It also gave a relative viability (NCI-H2342; first compound 6.325 µM) of 0.716, a relative viability (NCI-H2342; first compound 20 µM) of 1.1 and a relative viability (LC-2-ad; first compound 0.2 µM) of 0.904. For the same molecule, the relative viability (LC-2-ad; first compound 0.6325 µM) was 0.941, the relative viability (LC-2-ad; first compound 2 µM) was 0.913 and the relative viability (LC-2-ad; first compound 6.325 µM) was 0.529. It also gave a relative viability (LC-2-ad; first compound 20 µM) of 0.739, a relative viability (COR-L23; first compound 0.2 µM) of 0.509 and a relative viability (COR-L23; first compound 0.6325 µM) of 0.619. It also gave a relative viability (COR-L23; first compound 2 µM) of 0.571, a relative viability (COR-L23; first compound 6.325 µM) of 0.388 and a relative viability (COR-L23; first compound 20 µM) of 0.306. It also gave a relative viability (SK-MES-1; first compound 0.2 µM) of 0.569, a relative viability (SK-MES-1; first compound 0.6325 µM) of 0.601 and a relative viability (SK-MES-1; first compound 2 µM) of 0.58. For the same molecule, the relative viability (SK-MES-1; first compound 6.325 µM) was 0.518, the relative viability (SK-MES-1; first compound 20 µM) was 0.514 and the relative viability (HCC-827; first compound 0.2 µM) was 0.501. It also gave a relative viability (HCC-827; first compound 0.6325 µM) of 0.506, a relative viability (HCC-827; first compound 2 µM) of 0.522 and a relative viability (HCC-827; first compound 6.325 µM) of 0.384. The relative viability (HCC-827; first compound 20 µM) was 0.443, the relative viability (LCLC-103H; first compound 0.2 µM) was 0.662 and the relative viability (LCLC-103H; first compound 0.6325 µM) was 0.687. The relative viability (LCLC-103H; first compound 2 µM) was 0.694, the relative viability (LCLC-103H; first compound 6.325 µM) was 0.669 and the relative viability (LCLC-103H; first compound 20 µM) was 0.394. The relative viability (NCI-H1975; first compound 0.2 µM) was 0.366, the relative viability (NCI-H1975; first compound 0.6325 µM) was 0.372 and the relative viability (NCI-H1975; first compound 2 µM) was 0.376. For the same molecule, the relative viability (NCI-H1975; first compound 6.325 µM) was 0.208, the relative viability (NCI-H1975; first compound 20 µM) was 0.123 and the relative viability (NCI-H1666; first compound 0.2 µM) was 0.929. The relative viability (NCI-H1666; first compound 0.6325 µM) was 0.833, the relative viability (NCI-H1666; first compound 2 µM) was 0.847 and the relative viability (NCI-H1666; first compound 6.325 µM) was 0.826. For the same molecule, the relative viability (NCI-H1666; first compound 20 µM) was 0.426, the relative viability (UMC-11; first compound 0.2 µM) was 0.724 and the relative viability (UMC-11; first compound 0.6325 µM) was 0.267. For the same molecule, the relative viability (UMC-11; first compound 2 µM) was 0.751, the relative viability (UMC-11; first compound 6.325 µM) was 0.475 and the relative viability (UMC-11; first compound 20 µM) was 0.156.
